By TGI is commonly meant the concentration at which net growth stops. By GI50 is commonly meant the concentration at which growth is held to half of that of the control.

The values that follow come from PubChem BioAssay (NCI).

“And” between values parts separate entries of the source, which are not always exact repeats. Equal values may be shown once.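 Five concentrations, 48 hours, 96-well plates. GI50 marks 50% less growth. TGI: concentration producing complete growth inhibition.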

Test systems include IGROV1 ovarian; KM12 colon; M14 melanoma; MDA-MB-435; NCI-H23 lung; RXF 393 renal; SK-MEL-28 melanoma; SW-620 colon; U251 CNS; UACC-257 melanoma.
Assay in all cases: DTP human tumour cell line panel, 48 h

`O=C(O)CSCC(=O)c1ccccc1`: the TGI in the assay on IGROV1 ovarian, with KM12 colon, in the assay on M14 melanoma, in the assay on MDA-MB-435, in the assay on NCI-H23 lung and in the assay with RXF 393 renal was above 100 µM in each case. Besides, the TGI in the assay on SK-MEL-28 melanoma, in the assay with SW-620 colon, in the assay with U251 CNS and in the assay with UACC-257 melanoma was above 100 µM in each case.
Consider `COc1cccc2c(Nc3ccc(C(=O)NCCNCCO)cc3)cc(-c3ccccc3)nc12`, for which the GI50 in the assay with IGROV1 ovarian is 20.4 µM; in the assay with KM12 colon, 33.2 µM; in the assay on M14 melanoma it was 26.9 µM; in the assay on MDA-MB-435, 27.8 µM; with NCI-H23 lung, 63.3 µM; in the assay with RXF 393 renal, 33.1 µM. The GI50 in the assay with SK-MEL-28 melanoma was 35.2 µM; in the assay with SW-620 colon, 37.7 µM; with U251 CNS it was 5.89 µM; with UACC-257 melanoma, 39 µM. In addition, the TGI in the assay with IGROV1 ovarian was 48.7 µM; in the assay on KM12 colon it was above 100 µM; with M14 melanoma, 74.7 µM; in the assay on MDA-MB-435, 75.5 µM; with NCI-H23 lung, above 100 µM; in the assay with RXF 393 renal, 93.1 µM. Moreover, the total growth inhibition concentration (TGI) was above 100 µM in the assay on SK-MEL-28 melanoma, above 100 µM in the assay on SW-620 colon, 24.9 µM in the assay with U251 CNS and above 100 µM in the assay on UACC-257 melanoma.
In the case of `NCCCn1c2c(c3ccccc3c1=O)C(=O)c1cc3c(cc1-2)OCO3`, the concentration for 50% growth inhibition (GI50) is 0.374 µM in the assay on IGROV1 ovarian; 0.311 µM in the assay on KM12 colon; 0.118 µM in the assay on M14 melanoma; 1.43 µM in the assay with MDA-MB-435; 0.324 µM in the assay on NCI-H23 lung; 2.35 µM in the assay with RXF 393 renal. Further, the GI50 with SK-MEL-28 melanoma was 2.23 µM; in the assay with SW-620 colon, 0.111 µM; with U251 CNS, 0.149 µM; with UACC-257 melanoma, 1.95 µM. For the same compound, the TGI is 9.2 µM with IGROV1 ovarian; 2.82 µM with KM12 colon; 1.51 µM in the assay with M14 melanoma; 8.1 µM in the assay on MDA-MB-435; 1.38 µM in the assay with NCI-H23 lung; above 30.3 µM in the assay with RXF 393 renal. Further, the TGI in the assay with SK-MEL-28 melanoma came out at 9.37 µM; in the assay on SW-620 colon it was 2.35 µM; in the assay with U251 CNS, 1.52 µM; with UACC-257 melanoma it was 12.6 µM.
As for `CC(C)(C)[Si](C)(C)OC1[C@@H](O[Si](C)(C)C(C)(C)C)[C@@H](CNC(=O)NC(=O)NC(=O)CI)O[C@H]1n1cnc2c(NC(=O)Nc3ccccc3)ncnc21` (some centres not stated), the GI50 in the assay with IGROV1 ovarian was 0.113 µM; in the assay on KM12 colon it was 0.68 µM; with M14 melanoma, 6.1 µM; in the assay on MDA-MB-435 it was 7.83 µM; in the assay on NCI-H23 lung, 0.187 µM; in the assay with RXF 393 renal, 0.713 µM. The GI50 is 9.69 µM with SK-MEL-28 melanoma, 3.38 µM with SW-620 colon, 0.443 µM in the assay with U251 CNS and 7.42 µM in the assay with UACC-257 melanoma. The TGI is 0.246 µM in the assay on IGROV1 ovarian; 3.78 µM in the assay on KM12 colon; 14.6 µM with M14 melanoma; 20.8 µM in the assay with MDA-MB-435; 1.09 µM in the assay on NCI-H23 lung; 3.11 µM with RXF 393 renal. Also, the TGI stood at 22.8 µM in the assay on SK-MEL-28 melanoma, 12.6 µM in the assay on SW-620 colon, 1.88 µM in the assay on U251 CNS and 16.7 µM with UACC-257 melanoma.
With `COc1ccc(/C=C(\C#N)n2nnc3cc(Cl)ccc32)cc1`, the GI50 with IGROV1 ovarian was 0.606 µM; in the assay on KM12 colon, 1.33 µM; in the assay with M14 melanoma, 0.373 µM; with MDA-MB-435, 0.124 µM; in the assay with NCI-H23 lung it was 1.67 µM; in the assay on RXF 393 renal, 0.787 µM. Moreover, the GI50 is 1.33 µM in the assay with SK-MEL-28 melanoma, 0.351 µM in the assay on SW-620 colon, 0.63 µM in the assay with U251 CNS and 2.4 µM with UACC-257 melanoma. In addition, the TGI in the assay with IGROV1 ovarian was above 37.9 µM; with KM12 colon it was 37.1 µM; in the assay with M14 melanoma, 6.63 µM; in the assay with MDA-MB-435, 0.342 µM; in the assay with NCI-H23 lung, above 33.6 µM; in the assay with RXF 393 renal, 2.62 µM. Besides, the TGI in the assay with SK-MEL-28 melanoma is 31.2 µM; in the assay with SW-620 colon, above 100 µM; in the assay with U251 CNS, 9.53 µM; in the assay on UACC-257 melanoma it was above 100 µM.
Consider `Cc1c2ncccc2c(C)c2c1[nH]c1ccc(O)cc12`, for which the GI50 in the assay with IGROV1 ovarian is 7.29 µM and 11.6 µM; in the assay with KM12 colon, 7.19 µM and 7.87 µM; in the assay with M14 melanoma, 8.67 µM; in the assay with NCI-H23 lung, 11.9 µM and 19 µM; with RXF 393 renal it was 10.7 µM; with SW-620 colon, 7.83 µM. The GI50 in the assay with U251 CNS is 9.94 µM and 4.34 µM; with UACC-257 melanoma, 27.3 µM. The TGI in the assay with IGROV1 ovarian was 21.5 µM and 102 µM; with KM12 colon it was 19.9 µM and 23.1 µM; in the assay on M14 melanoma it was 17.2 µM; in the assay on MDA-MB-435, 20.9 µM; in the assay on RXF 393 renal, 9.81 µM and 43 µM; with SK-MEL-28 melanoma, 27.3 µM. Further, the TGI in the assay on SW-620 colon is 39.9 µM; in the assay on U251 CNS, 13.9 µM and 21.6 µM; in the assay with UACC-257 melanoma it was 25.2 µM and 89 µM.
Consider `COc1c(O)cc2oc3cc(O)c(CC=C(C)C)c(O)c3c(=O)c2c1C/C=C(\C)CCC=C(C)C`, for which the GI50 is 5.39 µM with IGROV1 ovarian; 5.47 µM with KM12 colon; 6.17 µM with M14 melanoma; 5.77 µM with MDA-MB-435; 6.6 µM in the assay with NCI-H23 lung; 5.53 µM with RXF 393 renal. In addition, the GI50 is 5.4 µM in the assay on SK-MEL-28 melanoma, 5.8 µM with SW-620 colon, 5.89 µM in the assay with U251 CNS and 5.63 µM in the assay on UACC-257 melanoma. Moreover, the TGI in the assay on IGROV1 ovarian was found to be 10.4 µM; in the assay with KM12 colon it was 9.91 µM; in the assay on M14 melanoma, 12.6 µM; in the assay with MDA-MB-435, 10.9 µM; in the assay with NCI-H23 lung it was 14.8 µM; in the assay on RXF 393 renal, 10.2 µM. Also, the total growth inhibition concentration (TGI) in the assay with SK-MEL-28 melanoma was determined as 10.3 µM; with SW-620 colon, 10.4 µM; with U251 CNS, 10.6 µM; in the assay with UACC-257 melanoma, 10.5 µM.
As to `COc1ccc2c(CN3CCC(CO)CC3)cc3cc4c(cc3c2c1)OCO4`, the GI50 in the assay with IGROV1 ovarian is 0.305 µM; in the assay on KM12 colon, 0.28 µM; with M14 melanoma, 0.296 µM; in the assay on MDA-MB-435, 0.275 µM; in the assay with NCI-H23 lung it was 0.298 µM; in the assay with RXF 393 renal it was 0.0843 µM. Also, the GI50 in the assay with SK-MEL-28 melanoma was 0.326 µM; with SW-620 colon, 0.141 µM; with U251 CNS, 0.265 µM; in the assay with UACC-257 melanoma, 0.156 µM. Also, the TGI was found to be 11.6 µM with IGROV1 ovarian; 4.34 µM with KM12 colon; 1.26 µM in the assay with M14 melanoma; 1.41 µM in the assay on MDA-MB-435; 1.5 µM with NCI-H23 lung; 0.847 µM with RXF 393 renal. The TGI turned out to be 1.15 µM in the assay on SK-MEL-28 melanoma, 11 µM in the assay on SW-620 colon, 8.82 µM in the assay with U251 CNS and 0.393 µM in the assay with UACC-257 melanoma.
